Results from patent EP1247803A2, “Indolinone compounds suitable for modulation of protein kinases” (Sugen, Inc., priority 1996, dated 1998).

Legend:
EGFR = molecular target: T1, EGFR (Homo sapiens, UniProt P00533); assay: EGFR ELISA assay (in vitro kinase activity, EGFR captured from A431 cell lysate); type: biochemical; design: concentration or dose not given beside the values
T1 construct: Add 7 ug A431 cell lysate per well (EGFR source); endogenous in cells; host or cells: A431
Summary of the method: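 EGFR from A431 lysate was captured on plates coated with anti-EGFR antibody. Compounds were added 30 min before a 5 min phosphorylation with 3 µM ATP/5 mM MnCl2, which was stopped with 20 mM EDTA. Phosphotyrosine was detected with rabbit anti-phosphotyrosine, then a peroxidase-conjugated secondary and ABTS/H2O2, read at 410 nm.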

MET = MET biochemical kinase assay; design: species or system human; concentration or dose not given beside the values
Summary of the method: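 Colorimetric signal from an HRP-linked anti-phosphotyrosine antibody with TMB measures phosphate incorporated into immobilised MET. The receptor is pulled from lysates by a polyclonal antibody against its cytoplasmic domain, then reacts in ATP- and metal-containing buffer with test compound.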

PDGF-R = PDGF-R (Homo sapiens, UniProt P09619); assay: PDGF-R ELISA; type: cell-based
Text: A PDGF-R ELISA is described in International Patent Publication No. WO 96/40116, published December 19, 1996 by Tang et al.

T1 sequence (P00533 25-1210): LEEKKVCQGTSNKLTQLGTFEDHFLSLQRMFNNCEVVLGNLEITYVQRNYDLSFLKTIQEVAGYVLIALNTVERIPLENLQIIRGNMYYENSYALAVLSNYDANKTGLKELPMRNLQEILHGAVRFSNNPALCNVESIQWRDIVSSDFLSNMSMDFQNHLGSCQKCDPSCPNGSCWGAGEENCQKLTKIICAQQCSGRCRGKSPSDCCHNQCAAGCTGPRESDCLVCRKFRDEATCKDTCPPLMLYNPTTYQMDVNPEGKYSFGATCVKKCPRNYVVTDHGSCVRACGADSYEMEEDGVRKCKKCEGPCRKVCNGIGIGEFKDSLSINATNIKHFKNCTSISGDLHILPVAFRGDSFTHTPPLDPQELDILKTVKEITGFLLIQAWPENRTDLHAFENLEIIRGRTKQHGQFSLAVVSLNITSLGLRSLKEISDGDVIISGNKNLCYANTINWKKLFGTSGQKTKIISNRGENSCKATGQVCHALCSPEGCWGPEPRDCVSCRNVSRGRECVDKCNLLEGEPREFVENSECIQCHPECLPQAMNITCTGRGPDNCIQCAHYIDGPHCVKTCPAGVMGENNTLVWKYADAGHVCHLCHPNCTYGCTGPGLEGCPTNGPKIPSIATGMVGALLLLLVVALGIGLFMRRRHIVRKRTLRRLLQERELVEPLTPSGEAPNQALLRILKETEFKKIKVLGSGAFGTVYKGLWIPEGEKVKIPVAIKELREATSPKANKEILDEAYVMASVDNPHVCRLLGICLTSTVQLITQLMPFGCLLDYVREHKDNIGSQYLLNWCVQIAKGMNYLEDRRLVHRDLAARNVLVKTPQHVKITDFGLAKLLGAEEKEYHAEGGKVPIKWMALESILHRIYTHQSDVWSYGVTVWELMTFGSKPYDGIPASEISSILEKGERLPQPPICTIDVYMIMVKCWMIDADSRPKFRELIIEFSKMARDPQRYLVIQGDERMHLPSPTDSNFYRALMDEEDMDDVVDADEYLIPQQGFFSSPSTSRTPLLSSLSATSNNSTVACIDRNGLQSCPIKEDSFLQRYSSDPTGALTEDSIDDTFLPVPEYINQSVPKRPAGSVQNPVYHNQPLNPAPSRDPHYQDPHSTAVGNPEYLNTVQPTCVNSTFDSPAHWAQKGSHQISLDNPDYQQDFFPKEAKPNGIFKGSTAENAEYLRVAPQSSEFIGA
Chain of PDGF-R (P09619 33-1106, species assumed): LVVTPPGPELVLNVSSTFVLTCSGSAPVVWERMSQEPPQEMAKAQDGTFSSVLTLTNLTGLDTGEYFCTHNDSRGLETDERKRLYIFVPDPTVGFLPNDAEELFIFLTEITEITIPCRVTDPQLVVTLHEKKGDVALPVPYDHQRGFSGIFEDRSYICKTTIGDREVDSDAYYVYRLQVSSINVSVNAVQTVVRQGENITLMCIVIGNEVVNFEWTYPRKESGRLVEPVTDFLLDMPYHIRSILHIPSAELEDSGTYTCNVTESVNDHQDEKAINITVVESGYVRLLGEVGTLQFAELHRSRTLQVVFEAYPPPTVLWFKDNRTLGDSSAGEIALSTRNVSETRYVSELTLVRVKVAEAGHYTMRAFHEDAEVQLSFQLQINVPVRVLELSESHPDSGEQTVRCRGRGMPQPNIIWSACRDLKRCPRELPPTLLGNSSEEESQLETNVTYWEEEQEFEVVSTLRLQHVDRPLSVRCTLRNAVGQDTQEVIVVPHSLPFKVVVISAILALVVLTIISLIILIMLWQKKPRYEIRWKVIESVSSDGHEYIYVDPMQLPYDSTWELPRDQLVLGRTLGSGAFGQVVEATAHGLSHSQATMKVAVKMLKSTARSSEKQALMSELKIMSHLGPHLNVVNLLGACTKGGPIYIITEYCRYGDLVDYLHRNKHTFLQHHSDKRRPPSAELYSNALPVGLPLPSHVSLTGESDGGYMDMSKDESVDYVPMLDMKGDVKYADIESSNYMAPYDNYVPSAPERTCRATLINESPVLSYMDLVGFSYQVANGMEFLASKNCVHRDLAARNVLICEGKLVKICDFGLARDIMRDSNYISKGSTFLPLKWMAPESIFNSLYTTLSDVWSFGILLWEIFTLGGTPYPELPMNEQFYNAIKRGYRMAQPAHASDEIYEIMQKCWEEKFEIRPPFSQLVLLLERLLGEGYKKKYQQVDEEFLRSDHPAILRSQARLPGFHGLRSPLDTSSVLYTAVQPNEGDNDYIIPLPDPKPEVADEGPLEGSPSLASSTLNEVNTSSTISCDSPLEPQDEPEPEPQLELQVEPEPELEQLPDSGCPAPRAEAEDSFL

O=C1Nc2c(Br)cc(Br)cc2C1=Cc1ccc(F)cc1 [10717/A05]
Biochem EGFR %Inhibition (EGFR): 16.6% | Met Kinase % Inhibition (MET): 35.6%

Cc1ccc(C=C2C(=O)Nc3ccc(S(=O)(=O)N4CCOCC4)cc32)s1 [10717/F07]
Biochem EGFR %Inhibition (EGFR): -14.3% | Met Kinase % Inhibition (MET): 37.6%

O=C1Nc2ccc(S(=O)(=O)N3CCOCC3)cc2C1=Cc1ccc(Br)cc1 [10717/F08]
Biochem EGFR %Inhibition (EGFR): -23.4% | Met Kinase % Inhibition (MET): 64.0%

O=C1Nc2ccc(S(=O)(=O)N3CCOCC3)cc2C1=Cc1ccc[nH]1 [10717/F09]
Biochem EGFR %Inhibition (EGFR): 1.8% | Met Kinase % Inhibition (MET): 41.4%

COc1cccc(O)c1C=C1C(=O)Nc2ccc(S(=O)(=O)N3CCOCC3)cc21 [10717/F10]
Biochem EGFR %Inhibition (EGFR): -26.4% | Met Kinase % Inhibition (MET): 54.6%

Cc1[nH]c(C=C2C(=O)Nc3ccc(S(=O)(=O)N4CCOCC4)cc32)c(Br)c1Br [10717/F11]
Biochem EGFR %Inhibition (EGFR): 91.2% | Met Kinase % Inhibition (MET): 81.5%

CCOc1ccccc1C=C1C(=O)Nc2ccc(CCCl)cc21 [10717/G02]
Biochem EGFR %Inhibition (EGFR): 32.3% | Met Kinase % Inhibition (MET): 30.7%

O=C1Nc2ccc(CCCl)cc2C1=Cc1cccs1 [10717/G03]
Biochem EGFR %Inhibition (EGFR): 18.8% | Met Kinase % Inhibition (MET): 4.5%

Cc1c(Br)ccc2c1C(=Cc1sccc1Br)C(=O)N2 [10725/C02]
PDGF Kinase %Inhibition (PDGF-R): -5.1% | Biochem EGFR %Inhibition (EGFR): -43.4% | Met Kinase % Inhibition (MET): 6.3%

COc1ccc(Br)c(C=C2C(=O)Nc3ccc(Br)c(C)c32)c1O [10725/C03]
PDGF Kinase %Inhibition (PDGF-R): 19.3% | Biochem EGFR %Inhibition (EGFR): -12.7% | Met Kinase % Inhibition (MET): 72.9%

Cc1ccc(C=C2C(=O)Nc3ccc(Br)c(C)c32)o1 [10725/C04]
PDGF Kinase %Inhibition (PDGF-R): 25.1% | Biochem EGFR %Inhibition (EGFR): 31.8% | Met Kinase % Inhibition (MET): 75.9%

Cc1cc(C=C2C(=O)Nc3ccc(Br)c(C)c32)[nH]n1 [10725/C05]
PDGF Kinase %Inhibition (PDGF-R): 28.9% | Biochem EGFR %Inhibition (EGFR): -21.9% | Met Kinase % Inhibition (MET): 31.7%

COc1cc(C)cc(O)c1C=C1C(=O)Nc2ccc(Br)c(C)c21 [10725/C06]
PDGF Kinase %Inhibition (PDGF-R): 46.6% | Biochem EGFR %Inhibition (EGFR): -11.5% | Met Kinase % Inhibition (MET): 54.7%

Cc1c(Br)ccc2c1C(=Cc1ccc(N3CCN(C=O)CC3)cc1)C(=O)N2 [10725/C07]
PDGF Kinase %Inhibition (PDGF-R): 107.0% | Biochem EGFR %Inhibition (EGFR): -16.5% | Met Kinase % Inhibition (MET): 38.8%

Cc1c(Br)ccc2c1C(=Cc1ccc(N3CCOCC3)cc1)C(=O)N2 [10725/C08]
PDGF Kinase %Inhibition (PDGF-R): 101.7% | Biochem EGFR %Inhibition (EGFR): -11.9% | Met Kinase % Inhibition (MET): 28.0%

COC(=O)Cc1c(Cl)[nH]c(C=C2C(=O)Nc3ccc(Br)c(C)c32)c1C(=O)OC [10725/C09]
PDGF Kinase %Inhibition (PDGF-R): 34.7% | Biochem EGFR %Inhibition (EGFR): 23.6% | Met Kinase % Inhibition (MET): 24.1%

Cc1c(Br)ccc2c1C(=Cc1c(Br)cnn1-c1ccc(Cl)cc1)C(=O)N2 [10725/C10]
PDGF Kinase %Inhibition (PDGF-R): 38.5% | Biochem EGFR %Inhibition (EGFR): 5.3% | Met Kinase % Inhibition (MET): -0.6%

Cc1c(Br)ccc2c1C(=Cc1c[nH]cn1)C(=O)N2 [10725/C11]
PDGF Kinase %Inhibition (PDGF-R): 80.7% | Biochem EGFR %Inhibition (EGFR): -22.1% | Met Kinase % Inhibition (MET): 48.4%

CNS(=O)(=O)c1ccc2c(c1)C(=Cc1sccc1Br)C(=O)N2 [10725/D02]
PDGF Kinase %Inhibition (PDGF-R): -8.4% | Biochem EGFR %Inhibition (EGFR): -23.9% | Met Kinase % Inhibition (MET): 14.0%

CNS(=O)(=O)c1ccc2c(c1)C(=Cc1c(Br)ccc(OC)c1O)C(=O)N2 [10725/D03]
PDGF Kinase %Inhibition (PDGF-R): 5.4% | Biochem EGFR %Inhibition (EGFR): -2.5% | Met Kinase % Inhibition (MET): 72.9%

CNS(=O)(=O)c1ccc2c(c1)C(=Cc1ccc(C)o1)C(=O)N2 [10725/D04]
PDGF Kinase %Inhibition (PDGF-R): 12.2% | Biochem EGFR %Inhibition (EGFR): 4.3% | Met Kinase % Inhibition (MET): 55.1%

CNS(=O)(=O)c1ccc2c(c1)C(=Cc1cc(C)n[nH]1)C(=O)N2 [10725/D05]
PDGF Kinase %Inhibition (PDGF-R): 10.7% | Biochem EGFR %Inhibition (EGFR): -19.7% | Met Kinase % Inhibition (MET): 24.5%

CNS(=O)(=O)c1ccc2c(c1)C(=Cc1c(O)cc(C)cc1OC)C(=O)N2 [10725/D06]
PDGF Kinase %Inhibition (PDGF-R): 21.7% | Biochem EGFR %Inhibition (EGFR): -26.4% | Met Kinase % Inhibition (MET): 24.7%

CNS(=O)(=O)c1ccc2c(c1)C(=Cc1ccc(N3CCN(C=O)CC3)cc1)C(=O)N2 [10725/D07]
PDGF Kinase %Inhibition (PDGF-R): 18.4% | Biochem EGFR %Inhibition (EGFR): -25.8% | Met Kinase % Inhibition (MET): 37.0%

CNS(=O)(=O)c1ccc2c(c1)C(=Cc1ccc(N3CCOCC3)cc1)C(=O)N2 [10725/D08]
PDGF Kinase %Inhibition (PDGF-R): 38.5% | Biochem EGFR %Inhibition (EGFR): 20.0% | Met Kinase % Inhibition (MET): 39.2%

CNS(=O)(=O)c1ccc2c(c1)C(=Cc1[nH]c(Cl)c(CC(=O)OC)c1C(=O)OC)C(=O)N2 [10725/D09]
PDGF Kinase %Inhibition (PDGF-R): 35.6% | Biochem EGFR %Inhibition (EGFR): 4.3% | Met Kinase % Inhibition (MET): 28.0%

CNS(=O)(=O)c1ccc2c(c1)C(=Cc1c(Br)cnn1-c1ccc(Cl)cc1)C(=O)N2 [10725/D10]
PDGF Kinase %Inhibition (PDGF-R): 43.8% | Biochem EGFR %Inhibition (EGFR): 11.7% | Met Kinase % Inhibition (MET): 27.8%

CNS(=O)(=O)c1ccc2c(c1)C(=Cc1c[nH]cn1)C(=O)N2 [10725/D11]
PDGF Kinase %Inhibition (PDGF-R): 23.2% | Biochem EGFR %Inhibition (EGFR): -12.5% | Met Kinase % Inhibition (MET): 100.5%

O=C1Nc2ccc(S(=O)(=O)Nc3ccc(C(F)(F)F)cc3)cc2C1=Cc1sccc1Br [10725/E02]
PDGF Kinase %Inhibition (PDGF-R): -8.9% | Biochem EGFR %Inhibition (EGFR): 4.3% | Met Kinase % Inhibition (MET): 40.2%

COc1ccc(Br)c(C=C2C(=O)Nc3ccc(S(=O)(=O)Nc4ccc(C(F)(F)F)cc4)cc32)c1O [10725/E03]
PDGF Kinase %Inhibition (PDGF-R): 10.7% | Biochem EGFR %Inhibition (EGFR): -10.3% | Met Kinase % Inhibition (MET): 60.9%

Cc1ccc(C=C2C(=O)Nc3ccc(S(=O)(=O)Nc4ccc(C(F)(F)F)cc4)cc32)o1 [10725/E04]
PDGF Kinase %Inhibition (PDGF-R): 3.1% | Biochem EGFR %Inhibition (EGFR): 31.2% | Met Kinase % Inhibition (MET): 59.0%

Cc1cc(C=C2C(=O)Nc3ccc(S(=O)(=O)Nc4ccc(C(F)(F)F)cc4)cc32)[nH]n1 [10725/E05]
PDGF Kinase %Inhibition (PDGF-R): 27.5% | Biochem EGFR %Inhibition (EGFR): -5.5% | Met Kinase % Inhibition (MET): 28.2%

COc1cc(C)cc(O)c1C=C1C(=O)Nc2ccc(S(=O)(=O)Nc3ccc(C(F)(F)F)cc3)cc21 [10725/E06]
PDGF Kinase %Inhibition (PDGF-R): 39.0% | Biochem EGFR %Inhibition (EGFR): -17.7% | Met Kinase % Inhibition (MET): 36.7%

O=CN1CCN(c2ccc(C=C3C(=O)Nc4ccc(S(=O)(=O)Nc5ccc(C(F)(F)F)cc5)cc43)cc2)CC1 [10725/E07]
PDGF Kinase %Inhibition (PDGF-R): 28.9% | Biochem EGFR %Inhibition (EGFR): 12.5% | Met Kinase % Inhibition (MET): 45.3%

O=C1Nc2ccc(S(=O)(=O)Nc3ccc(C(F)(F)F)cc3)cc2C1=Cc1ccc(N2CCOCC2)cc1 [10725/E08]
PDGF Kinase %Inhibition (PDGF-R): 48.6% | Biochem EGFR %Inhibition (EGFR): 14.2% | Met Kinase % Inhibition (MET): 39.7%

COC(=O)Cc1c(Cl)[nH]c(C=C2C(=O)Nc3ccc(S(=O)(=O)Nc4ccc(C(F)(F)F)cc4)cc32)c1C(=O)OC [10725/E09]
PDGF Kinase %Inhibition (PDGF-R): 37.5% | Biochem EGFR %Inhibition (EGFR): 31.4% | Met Kinase % Inhibition (MET): 22.4%

O=C1Nc2ccc(S(=O)(=O)Nc3ccc(C(F)(F)F)cc3)cc2C1=Cc1c(Br)cnn1-c1ccc(Cl)cc1 [10725/E10]
PDGF Kinase %Inhibition (PDGF-R): 28.4% | Biochem EGFR %Inhibition (EGFR): 6.1% | Met Kinase % Inhibition (MET): -4.7%

O=C1Nc2ccc(S(=O)(=O)Nc3ccc(C(F)(F)F)cc3)cc2C1=Cc1c[nH]cn1 [10725/E11]
PDGF Kinase %Inhibition (PDGF-R): 20.8% | Biochem EGFR %Inhibition (EGFR): -36.0% | Met Kinase % Inhibition (MET): 9.6%

O=C1Nc2ccc(S(=O)(=O)N3CCOCC3)cc2C1=Cc1sccc1Br [10725/F02]
PDGF Kinase %Inhibition (PDGF-R): -15.1% | Biochem EGFR %Inhibition (EGFR): -3.7% | Met Kinase % Inhibition (MET): 27.8%

COc1ccc(Br)c(C=C2C(=O)Nc3ccc(S(=O)(=O)N4CCOCC4)cc32)c1O [10725/F03]
PDGF Kinase %Inhibition (PDGF-R): -27.1% | Biochem EGFR %Inhibition (EGFR): -36.2% | Met Kinase % Inhibition (MET): 63.2%
